Legend:
Format in all cases: cell-based
THP1 AML cells [1] = assay: CD11b / CD14 differentiation marker flow cytometry; details: THP-1 cells, 5 days after treatment
Description: (§1) E) Elevation of differentiation markers CD11b and CD14. […] G) Upregulation of p27 (CDKN1B) (ED3 lysates were unavailable).
(§2) (A) CD11b flow cytometry was performed on THP-1 cells 5 days after the indicated treatments. (B) Annexin-PI flow cytometry of the same cells to determine the percent of cells that were undergoing apoptosis after treatments with the different compounds. Camptothecin is a positive apoptosis inducer.

THP-1 cells = assay: Annexin-PI flow cytometry for apoptosis; details: 5 days after treatment
Description: as §2

THP1 AML cells [2] = assay: cell number / growth of THP1 AML cells; details: derivatives at 1 mM vs ED2 at 10 μM
Excerpt: as §1

[3] = cell viability (zolpidem)

SMILES	differentiation induction via CD11b flow cytometry versus decitabine and ED2 (THP1 AML cells [1])	activation of apoptosis pathway (Annexin-PI) (THP-1 cells)	growth inhibitory activity against THP-1 cells versus ED2 (THP1 AML cells [2])	cell viability [3]
CCCCSc1ccc2nc(-c3ccc(OCCCN)cc3)cn2c1 [NH2, 3-(4-(6-(butylthio)imidazo[1,2-a]pyridin-2-yl)phenoxy)propan-1-amine]	better differentiation inducers than decitabine (DAC) and ED2	do not activate the apoptosis pathway	more potent growth inhibitory activity	
O=C(O)CCCC[C@@H]1SC[C@@H]2NC(=O)N[C@@H]21 [biotin]	better differentiation inducers than decitabine (DAC) and ED2	do not activate the apoptosis pathway	more potent growth inhibitory activity	
Cc1ccc(-c2nc3ccc(C)cn3c2CC(=O)N(C)C)cc1 [zolpidem]				does not affect cell viability

Source: patent US10370373B2, “Antitumor derivatives for differentiation therapy” (THE CLEVELAND CLINIC FOUNDATION, priority 2016, dated 2019)
